Results reported in patent publication US10123985B2, “Therapeutic strategies for treating mitochondrial disorders” (Whitehead Institute for Biomedical Research, priority 2015, dated 2018).
Entries after “also recorded” stand apart in the source; their conditions may differ.

Columns and labels:
Jurkat cells [1] = test: Seahorse oxygen consumption of Jurkat cells; type: cell-based, human; settings: phenformin (10 μM), wild type and GOT1 null
Description: Oxygen consumption of intact cells was measured using an XF24 Extracellular Flux Analyzer (Seahorse Bioscience). For Jurkat cells, seahorse plates were coated with cell TAK (BD, 0.02 mg/ml in […] NaHO3) for 20 minutes to increase adherence of suspension cells. 200,000 cells were then attached to the plate by centrifugation at 2,200 rpm without brakes for 5 min. RPMI 8226 (US biological #9011) assay media was used as previously described (Birsoy et al., 2014). For basal oxygen consumption measurements the cell number was used to normalize.

Jurkat cells [2] = test: [U-13C]-L-glutamine isotope tracing of aspartate in Jurkat cells; type: cell-based, human; settings: phenformin (10 μM)
Description: (§1) LC/MS analyses were conducted on a QExactive benchtop orbitrap mass spectrometer equipped with an Ion Max source and a HESI II probe, which was coupled to a Dionex UltiMate 3000 UPLC system (Thermo Fisher Scientific, San Jose, Calif.). External mass calibration was performed using the standard calibration mixture every 7 days.
Polar metabolites were extracted using 1 ml of ice-cold 80% methanol with 10 ng/ml valine-d8 as an internal standard. After a 10 min vortex and centrifugation for 10 min at 4° C. at 10,000 g, samples were dried under nitrogen gas. Dried samples were stored at −80° C. and then resuspended in 100 μL water; 1 μl of each sample was injected onto a ZIC-pHILIC 2.1×150 mm (5 μm particle size) column (EMD Millipore). Buffer A was 20 mM ammonium carbonate, 0.1% ammonium hydroxide; buffer B was acetonitrile. […] Relative quantitation of polar metabolites was performed with XCalibur QuanBrowser 2.2 (Thermo Fisher Scientific) using a 5 ppm mass tolerance and referencing an in-house library of chemical standards.

[3] = test system: Raji lymphoma and KMS-26 multiple myeloma cells; type: cell-based, human; settings: 5-day treatment
Description: […]. Media was changed 24 hours after transfection.

Jurkat cells [4] = test: Proliferation assay (Cell Titer Glo, 5 days) of wild type and knock-out Jurkat cells; type: cell-based, human
Description: sgRNAs (oligonucleotide sequences are indicated above) were cloned into lentiCRISPR-v1 linearized with BsmBI by Gibson Assembly (NEB). sgRNA expressing vector along with lentiviral packaging vectors Delta-VPR and CMV VSVG were transfected into HEK-293T cells using the XTremeGene 9 transfection reagent (Roche). Similarly, for overexpression cell lines, cDNA vectors along with retroviral packaging vectors gag-pol and CMV VSV-G were transfected into HEK-293T cells. Media was changed 24 hours after transfection.

Jurkat cells [5] = test: Metabolite profiling (LC/MS) of Jurkat cells; type: cell-based, human
Description: as §1
Polar metabolites were extracted using 1 ml of ice-cold 80% methanol with 10 ng/ml valine-d8 as an internal standard. After a 10 min vortex and centrifugation for 10 min at 4° C. at 10,000 g, samples were dried under nitrogen gas. Dried samples were stored at −80° C. and then resuspended in 100 μL water; 1 μl of each sample was injected onto a ZIC-pHILIC 2.1×150 mm (5 μm particle size) column (EMD Millipore). Buffer A was 20 mM ammonium carbonate, 0.1% ammonium hydroxide; buffer B was acetonitrile. The chromatographic gradient was run at a flow rate of 0.150 ml/min as follows: 0-20 min.: linear gradient from 80% to 20% B; 20-20.5 min.: linear gradient from 20% to 80% B; 20.5-28 min.: hold at 80% B. The mass spectrometer was operated in fullscan, polarity switching mode with the spray voltage set to 3.0 kV, the heated capillary held at 275° C., and the HESI probe held at 350° C. The sheath gas flow was set to 40 units, the auxiliary gas flow was set to 15 units, and the sweep gas flow was set to 1 unit. The MS data acquisition was performed in a range of 70-1000 m/z, with the resolution set at 70,000, the AGC target at 106, and the maximum injection time at 80 msec. Relative quantitation of polar metabolites was performed with XCalibur QuanBrowser 2.2 (Thermo Fisher Scientific) using a 5 ppm mass tolerance and referencing an in-house library of chemical standards.

143B CytB cells [6] = test: Cell cycle distribution by propidium iodide flow cytometry; type: cell-based; settings: 143B CytB cells, 100 μM adenine, 78 hours
Description: 143B CytB cells were incubated in untreated media or media containing AKB or 100 μM adenine for 78 hours before being washed with PBS, trypsinized, pelleted, and resuspended in 500 μL PBS. Cells were fixed by adding 4.5 mL 70% ethanol and incubated at 4° C. overnight. The following day cells were pelleted and resuspended in 1 mL PBS+0.1% (v/v) Triton X-100. RNase A and then propidium iodide (PI) were added to 0.2 mg/mL and 20 μg/mL, respectively. Samples were incubated at 37° C. for 15 minutes and filtered into a flow cytometry tube. DNA content was measured by flow cytometry (BD FACS Canto II) and analyzed (FACS Diva Software).

143B CytB cells [7] = test: Proliferation assay of respiration-incompetent 143B CytB cybrid cells; type: cell-based; settings: media supplemented with the substance; no pyruvate unless tested, uridine present
Description: FL5.12 cells were cultured in the same medium and supplemented with 5 μg/mL recombinant mouse IL-3 (R&D Systems). […] All cells incubated at 37° C. with 5% CO2.
Adherent cell lines growing in log phase were trypsinized, counted, and plated onto 6 well dishes (Corning) in 2 mL complete DMEM and incubated overnight. […] The following day, one plate of cells was counted to determine the initial cell count at the time of treatment. Cells were washed 2 times with 2 mL phosphate buffered saline (PBS) and 4 mL media premixed with the indicated treatments was added. FL5.12 cells, a suspension cell line, were washed 2 times in PBS and added directly to media containing the indicated treatments and 5 μg/mL recombinant mouse IL-3. Proliferation rate assay media was DMEM without pyruvate containing 10% dialyzed FBS, penicillin-streptomycin, and 0.1 mg/mL uridine, unless otherwise noted. […] Cells were counted using Cellometer Auto T4 Plus Cell Counter (Nexcelom Bioscience). Proliferation rate was determined using the following formula: Proliferation Rate (Doublings per day)=(log2(Final cell count (day 5)/Initial cell count (day 1))/4 (days)

[8] = GOT1-null Jurkat cells, 24-hour phenformin

Row | SMILES | Oxygen consumption (respiration) of Jurkat cells (Jurkat cells [1]) | Aspartate synthesis from [U-13C]-L-glutamine (Jurkat cells [2]; GOT1-null Jurkat cells) | Aspartate synthesis from [U-13C]-L-glutamine (Jurkat cells [2]; wild type Jurkat cells) | Sensitivity of GOT1-null versus wild type Raji and KMS-26 cells to phenformin [3] | Proliferation of Jurkat cells (Jurkat cells [4]; 0.5 μM phenformin, pyruvate-free RPMI) | Viability and proliferation of GOT1-null versus wild type Jurkat cells (Jurkat cells [4]; higher concentrations of phenformin, 5 days) | Proliferation of GOT1-null versus wild type Jurkat cells (Jurkat cells [4]; low doses of phenformin, 5 days) | Other amino acids (Jurkat cells [5]; [8]) | Reduction of cellular aspartate (Jurkat cells [5]; [8]) [fold] | Aspartate level (Jurkat cells [5]; MDH1-null Jurkat cells, phenformin (10 μM) 24 hours) | Fall of aspartate levels (Jurkat cells [5]; wild type Jurkat cells, 24-hour phenformin) [fold] | Cell cycle distribution (DNA content) (143B CytB cells [6]) | Proliferation rate of 143B CytB cells (143B CytB cells [7])
1 | [H]/N=C(/N)N/C(=N/[H])NCCc1ccccc1 [phenformin, reference compound] | suppressed respiration as measured by oxygen consumption; also recorded: inhibits oxygen consumption of wild type and GOT1 null Jurkat cells | almost no generation of aspartate from labeled glutamine | aspartate is mainly synthesized by reductive metabolism of glutamine in a GOT1-dependent manner; also recorded: aspartate synthesis dropped, and what remained came primarily from reductive glutamine metabolism with almost no contribution from the oxidative pathway | GOT1 loss sensitizes various human cell types to phenformin treatment; also recorded: far more sensitive to phenformin than their wild type counterparts | only mildly slowed proliferation | GOT1-null cells die; also recorded: GOT1-null cells arrested and died, while the wild type counterparts did not | inhibited the proliferation of GOT1-null cells to a much greater extent than that of wild type cells | without much effect on other amino acids | ~30 | dropped to the same level as it did in wild type cells | ~3 |  | 
2 | Nc1ncnc2nc[nH]c12 [adenine, reference compound] |  |  |  |  |  |  |  |  |  |  |  | alleviated the slight accumulation of cells at the S/G2 transition | restored proliferation for one doubling
